The test is described as follows: Activation of TRAIL receptor in human T98G cells assessed as reduction in cel viability by Cell-titer-Glo luminescent cell viability assay. The class given is cell-based.
One may read the IC50 as the concentration that inhibits the measured activity by half. Regarding `N=C1S/C(=C\c2ccc(-c3ccc4c(c3)C(=O)NC4=O)o2)C(=O)N1c1ccc(C(F)(F)F)cc1`, the IC50 was more than 30 µM. On to `COc1ccc(N2C(=N)S/C(=C\c3ccc(-c4ccc5c(c4)C(=O)NC5=O)o3)C2=O)cc1`, for which the IC50 was more than 30 µM. With `COc1cccc(N2C(=N)S/C(=C\c3ccc(-c4ccc5c(c4)C(=O)NC5=O)o3)C2=O)c1`, the IC50 was 10 µM.

Turning to `COc1ccc(N2C(=N)S/C(=C\c3ccc(-c4cccnc4)o3)C2=O)cc1`, the IC50 turned out to be 25 µM. For the compound `COc1ccc(N2C(=N)S/C(=C\c3ccc(-c4ccncc4)o3)C2=O)cc1`, the IC50 came out at 20 µM. Under `N=C1S/C(=C\c2ccc(-c3ccc4c(c3)C(=O)NC4=O)o2)C(=O)N1c1ccc(Br)cc1` stands 2 µM; under `N=C1S/C(=C\c2ccc(-c3ccc4c(c3)C(=O)NC4=O)o2)C(=O)N1c1ccc(F)cc1`, 20 µM; under `C=CCN1C(=N)S/C(=C\c2ccc(-c3ccc4c(c3)C(=O)NC4=O)o2)C1=O`, more than 30 µM.

Regarding `COc1ccc(N2C(=N)S/C(=C\c3ccc(-c4ccc(OC)c(F)c4)o3)C2=O)cc1`, the IC50 came to 20 µM.

For the compound `COc1ccc(/C=C2\SC(=N)N(c3ccc(OC)cc3)C2=O)cc1`, the IC50 is more than 30 µM.

On to `COc1ccc(N2C(=N)S/C(=C\c3ccc(-c4ccccc4)o3)C2=O)cc1`, for which the IC50 was more than 30 µM.

`COc1ccc(N2C(=N)S/C(=C\c3ccc(-c4cncnc4)o3)C2=O)cc1`: the IC50 was more than 30 µM. Under `COc1ccc(N2C(=N)S/C(=C\c3ccc(-c4ccc5c(c4)C(=O)NC5=O)s3)C2=O)cc1` stands 10 µM; under `Cc1ccc(N2C(=N)S/C(=C\c3ccc(-c4ccc5c(c4)C(=O)NC5=O)o3)C2=O)cc1`, more than 30 µM; under `CN(C)c1ccc(N2C(=N)S/C(=C\c3ccc(-c4ccc5c(c4)C(=O)NC5=O)o3)C2=O)cc1`, more than 30 µM. In the case of `N=C1S/C(=C\c2ccc(-c3ccc4c(c3)C(=O)NC4=O)o2)C(=O)N1c1ncc[nH]1`, the IC50 is 20 µM. Take `COc1ccc(N2C(=N)S/C(=C\c3ccc(-c4ccc5c(c4)C(=O)N(C)C5=O)o3)C2=O)cc1`: the IC50 was more than 30 µM. For the compound `N=C1S/C(=C\c2ccc(-c3ccc4c(c3)C(=O)NC4=O)o2)C(=O)N1c1ccccc1`, the IC50 is more than 30 µM.

On to `N=C1S/C(=C\c2ccc(-c3ccc4c(c3)C(=O)NC4=O)o2)C(=O)N1c1ccccn1`, for which the IC50 is more than 30 µM. Regarding `CN1C(=N)S/C(=C\c2ccc(-c3ccc4c(c3)C(=O)NC4=O)o2)C1=O`, the IC50 was more than 30 µM. Regarding `COc1ccc(N2C(=O)S/C(=C\c3ccc(-c4ccc5c(c4)C(=O)NC5=O)o3)C2=O)cc1`, the IC50 is more than 30 µM. As to `Cc1csc(N2C(=N)S/C(=C\c3ccc(-c4ccc5c(c4)C(=O)NC5=O)o3)C2=O)n1`, the IC50 is more than 30 µM. Turning to `COc1ccc(N2C(=N)S/C(=C\c3ccc(-c4ccc5c(c4)C(=O)N(Cc4ccccc4)C5=O)o3)C2=O)cc1`, the IC50 was more than 30 µM. With `N=C1S/C(=C\c2ccc(-c3ccc4c(c3)C(=O)NC4=O)o2)C(=O)N1c1ccc(Cl)cc1`, the IC50 was found to be 25 µM.
